Where two headings read alike, the source gives them in different places.
Legend:
Assay type in all cases: cell-based
AhR [1] = target: T1, AhR (Homo sapiens, UniProt P35869); assay: In vitro assay 1: XRE-luciferase reporter assay, antagonism in human cell line (HepG2); conditions: HepG2 XRE-luciferase, 6 hours, read-out: Assay 1: AhR-Luc Human Antagonism (IC50)
T1 construct: host or cells: HepG2
T1 sequence (P35869 11-848): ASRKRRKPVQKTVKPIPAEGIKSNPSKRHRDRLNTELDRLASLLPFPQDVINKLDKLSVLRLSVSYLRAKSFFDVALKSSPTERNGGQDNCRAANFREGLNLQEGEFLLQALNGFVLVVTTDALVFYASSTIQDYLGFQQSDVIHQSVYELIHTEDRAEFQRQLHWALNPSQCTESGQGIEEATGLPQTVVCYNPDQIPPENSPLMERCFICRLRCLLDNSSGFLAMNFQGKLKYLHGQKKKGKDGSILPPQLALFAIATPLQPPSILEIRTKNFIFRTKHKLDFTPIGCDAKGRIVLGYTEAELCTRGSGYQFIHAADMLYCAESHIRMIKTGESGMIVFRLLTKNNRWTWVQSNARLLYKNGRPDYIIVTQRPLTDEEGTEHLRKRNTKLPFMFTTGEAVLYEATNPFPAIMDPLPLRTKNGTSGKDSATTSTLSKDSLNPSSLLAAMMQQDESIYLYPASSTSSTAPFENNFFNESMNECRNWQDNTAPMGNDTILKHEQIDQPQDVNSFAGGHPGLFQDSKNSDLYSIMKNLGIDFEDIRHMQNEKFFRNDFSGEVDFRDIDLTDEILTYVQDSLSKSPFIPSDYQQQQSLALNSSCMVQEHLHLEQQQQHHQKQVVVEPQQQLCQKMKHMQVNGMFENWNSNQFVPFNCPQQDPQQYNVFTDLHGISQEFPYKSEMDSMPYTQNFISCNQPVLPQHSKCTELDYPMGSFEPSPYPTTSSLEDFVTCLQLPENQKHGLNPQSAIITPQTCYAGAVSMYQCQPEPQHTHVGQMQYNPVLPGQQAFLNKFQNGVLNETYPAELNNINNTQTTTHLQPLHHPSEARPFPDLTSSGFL
Procedure, shortened: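 HepG2 cells carrying XRE-firefly luciferase (transient or stable) plus constitutive Nano-Luc control, stimulated 6 h with kynurenine (50 or 200 μM) with or without compound. Firefly/Nano-Luc ratio normalized to kynurenine-alone (maximum) and vehicle (minimum); IC50 by four-parameter nonlinear regression.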

AhR [2] = target: T1, AhR; assay: In vitro assay 3: XRE-luciferase reporter assay, agonism in human cell line (HepG2); conditions: HepG2 XRE-Luc, tryptophan free medium, test compound alone, 6 hours
Text: In Vitro XRE-Luciferase Reporter Assay (In Vitro Assay 1, 2, 3)
AhR activation leads the induction of target gene expression such as CYP1A1 and CYP1B1 by AhR binding to AhR-responsive DNA elements also known as xenobiotics responsive elements (XRE). The assay for measuring AhR activity herein is the luciferase assay using cell lines transfected with luciferase reporter plasmid containing XREs at the upstream of the reporter gene. Cells transfected with XRE-luciferase reporter (XRE-Luc) plasmid drive luciferase activity reflecting activation and inhibition of AhR in the cells. In addition to transfection with XRE-reporter vector, cells were co-transfected with Nano-luciferase reporter gene construct (Nano-Luc) containing constitutively active promoter as internal control. Kynurenine (an endogenous AhR agonist) was used to stimulate cells to test antagonistic properties of the compounds. The half-maximal inhibitory concentration (IC50) or half-maximal effective concentration (EC50) value was calculated using nonlinear regression (four parameters) with Prism8.0 software (GraphPad).
In Vitro Assay 3: Agonism in Human Cell Line
HepG2 (human hepatoma cell line) cells co-transfected with XRE-Luc and Nano-Luc plasmids were plated in tryptophan free medium containing 1% of dialyzed fetal bovine serum and incubated overnight at 37° C. in a CO2 incubator. After 24 hours, cells were treated for 6 hours with test compounds or not. Firefly luciferase and Nano-luciferase activity was measured using Nano-glo Luciferase kit (Promega) and relative luciferase activity (Firefly/Nano-Luc) was used to calculate EC50 values. As a positive control, cells were incubated with TCDD. (EC50 Values are grouped as A, B, C and D, whereby A: EC50<0.1 μM; B: 0.1<EC50<1.0 μM; C: 1.0<EC50<10 μM; D: EC50>10 μM)

AhR [3] = target: T1, AhR; assay: In vitro assay 4: endogenous AhR activity assay (CYP1A1 and CYP1B1 mRNA, qRT-PCR, HepG2 cells); conditions: TCDD 10 nM with compound 123 nM, 4 hours, mRNA relative to β-actin
Description: In Vitro Assay 4: Endogenous AhR Activity Assay
HepG2 cells were seeded in 12-well plate (3×10^5 cells/well). A day after seeding, the cells were treated with TCDD (10 nM) alone or with compounds (123 nM) for 4 hours. Total RNA was extracted using Trizol (Thermo Fisher Scientific). cDNA synthesis and quantitative RT-PCR (qRT-PCR) assays were performed using PrimeScript™ RT Master Mix (TAKARA) and TB Green™ Premix Ex Taq™ II (TAKARA) in accordance with manufacturer's instruction. For the measurement of endogenous AhR activity, relative mRNA levels of CYP1A1 and CYP1B1 were quantitated relative to β(beta)-actin mRNA by the comparative Ct (ΔΔCt) method. The percent inhibitions were calculated according to: […]

[4] = cells treated with kynurenine 200 μM (no *)
[5] = read-out: Assay 3: AhR-Luc Human Agonism (EC50)
[6] = read-out: CYP1A1 (% Inhibition)
[7] = read-out: CYP1B1 (% Inhibition)
[8] = cells treated with kynurenine 50 μM (*)
[9] = read-out: Assay 3: AhR-Luc Human Agonism (EC50, nM), class in brackets

Compound: CC(C)(O)Cn1cnc2c(-c3cccnc3)nc(-c3ccc(Cl)cc3)cc2c1=O [Example 38, 6-(4-chlorophenyl)-3-(2-hydroxy-2-methylpropyl)-8-(pyridin-3-yl)pyrido[3,4-d]pyrimidin-4(3H)-one]
- IC50 (AhR [1]; [4]): < 10 nM
- EC50 (AhR [2]; [5]): 1670 nM
- inhibition at 0.123 µM (AhR [3]; [6]): 100%

Compound: O=c1c2cc(-c3ccc(C(F)(F)F)cc3)nc(-c3cccnc3)c2ncn1[C@@H]1CCCC[C@@H]1O [Example 16, 3-((1R,2S)-2-hydroxycyclohexyl)-8-(pyridin-3-yl)-6-(4-(trifluoromethyl)phenyl)pyrido[3,4-d]pyrimidin-4(3H)-one]
- IC50 (AhR [1]; [4]): < 10 nM
- inhibition at 0.123 µM (AhR [3]; [6]): 99.6%
- inhibition at 0.123 µM (AhR [3]; [7]): 100%

Compound: CCC(CO)n1cnc2c(-c3cccc(F)c3)nc(-c3ccc(Cl)cc3)cc2c1=O (stereo not shown) [Example 55, 6-(4-chlorophenyl)-8-(3-fluorophenyl)-3-(1-hydroxybutan-2-yl)pyrido[3,4-d]pyrimidin-4(3H)-one]
- IC50 (AhR [1]; [8]): < 10 nM
- EC50 (AhR [2]; [5]): 1370 nM

Compound: CS(=O)(=O)CCn1cnc2c(-c3cccnc3)nc(-c3ccc(Cl)cc3)cc2c1=O [Example 77, 6-(4-chlorophenyl)-3-(2-(methylsulfonyl)ethyl)-8-(pyridin-3-yl)pyrido[3,4-d]pyrimidin-4(3H)-one]
- IC50 (AhR [1]; [4]): < 10 nM
- EC50 (AhR [2]; [5]): > 30000 nM
- EC50 (AhR [2]; [9]): > 10000 nM

Compound: O=c1c2cc(-c3ccc(Cl)nc3)nc(-c3cccnc3)c2ncn1[C@@H]1CC[C@H](O)C1 [Example 71, 6-(6-chloropyridin-3-yl)-3-((1R,3S)-3-hydroxycyclopentyl)-8-(pyridin-3-yl)pyrido[3,4-d]pyrimidin-4(3H)-one]
- IC50 (AhR [1]; [4]): 10 to 100 nM
- EC50 (AhR [2]; [5]): > 30000 nM
- EC50 (AhR [2]; [9]): > 10000 nM

Compound: CC(CO)n1cnc2c(-c3cnn(C)c3)nc(-c3ccc(Cl)cc3)cc2c1=O (stereo not shown) [Example 48, 6-(4-chlorophenyl)-3-(1-hydroxypropan-2-yl)-8-(1-methyl-1H-pyrazol-4-yl)pyrido[3,4-d]pyrimidin-4(3H)-one]
- IC50 (AhR [1]; [8]): < 10 nM
- EC50 (AhR [2]; [5]): > 30000 nM
- EC50 (AhR [2]; [9]): > 10000 nM

Compound: CC(CO)n1cnc2c(-c3cccnc3)nc(-c3ccc(C(F)(F)F)cc3)cc2c1=O (stereo not shown) [Example 44, 3-(1-hydroxypropan-2-yl)-8-(pyridin-3-yl)-6-(4-(trifluoromethyl)phenyl)pyrido[3,4-d]pyrimidin-4(3H)-one]
- IC50 (AhR [1]; [8]): < 10 nM
- EC50 (AhR [2]; [5]): > 30000 nM
- EC50 (AhR [2]; [9]): > 10000 nM

Compound: CCC(CO)n1cnc2c(-c3cccnc3)nc(-c3ccc(Cl)cc3)cc2c1=O (stereo not shown) [Example 51, 6-(4-chlorophenyl)-3-(1-hydroxybutan-2-yl)-8-(pyridin-3-yl)pyrido[3,4-d]pyrimidin-4(3H)-one]
- IC50 (AhR [1]; [8]): < 10 nM
- EC50 (AhR [2]; [5]): 701 nM
- inhibition at 0.123 µM (AhR [3]; [6]): 99.2%

Compound: CC(CO)N1CNc2c(cc(-c3ccc(C(F)(F)F)cc3)nc2-c2cnn(C)c2)C1=O (stereo not shown) [Example 59, 3-(1-hydroxypropan-2-yl)-8-(1-methyl-1H-pyrazol-4-yl)-6-(4-(trifluoromethyl)phenyl)-2,3-dihydropyrido[3,4-d]pyrimidin-4(1H)-one]
- IC50 (AhR [1]; [8]): < 10 nM
- EC50 (AhR [2]; [5]): > 30000 nM
- EC50 (AhR [2]; [9]): > 10000 nM

Compound: Cn1cc(-c2nc(-c3ccc(C(F)(F)F)cc3)cc3c(=O)n([C@H]4CCCC[C@H]4O)cnc23)cn1 [Example 17, 3-((1S,2R)-2-hydroxycyclohexyl)-8-(1-methyl-1H-pyrazol-4-yl)-6-(4-(trifluoromethyl)phenyl)pyrido[3,4-d]pyrimidin-4(3H)-one]
- IC50 (AhR [1]; [4]): > 1000 nM
- inhibition at 0.123 µM (AhR [3]; [6]): 90.7%
- inhibition at 0.123 µM (AhR [3]; [7]): 99.1%

Compound: CC(CO)n1cnc2c(-c3cnn(C)c3)nc(-c3ccc(C(F)(F)F)cc3)cc2c1=O (stereo not shown) [Example 45, 3-(1-hydroxypropan-2-yl)-8-(1-methyl-1H-pyrazol-4-yl)-6-(4-(trifluoromethyl)phenyl)pyrido[3,4-d]pyrimidin-4(3H)-one]
- IC50 (AhR [1]; [8]): < 10 nM
- EC50 (AhR [2]; [5]): 0.0428 nM
- inhibition at 0.123 µM (AhR [3]; [6]): 99.6%
- inhibition at 0.123 µM (AhR [3]; [7]): 100%

Compound: CCC(CO)n1cnc2c(-c3cnn(C)c3)nc(-c3ccc(Cl)cc3)cc2c1=O (stereo not shown) [Example 52, 6-(4-chlorophenyl)-3-(1-hydroxybutan-2-yl)-8-(1-methyl-1H-pyrazol-4-yl)pyrido[3,4-d]pyrimidin-4(3H)-one]
- IC50 (AhR [1]; [8]): < 10 nM
- EC50 (AhR [2]; [5]): 290 nM

Compound: O=c1c2cc(-c3ccc(C(F)(F)F)cc3)nc(-c3cccnc3)c2ncn1[C@H]1CC[C@H](O)CC1 [Example 57, 3-((1r,4r)-4-hydroxycyclohexyl)-8-(pyridin-3-yl)-6-(4-(trifluoromethyl)phenyl)pyrido[3,4-d]pyrimidin-4(3H)-one]
- IC50 (AhR [1]; [8]): < 10 nM
- EC50 (AhR [2]; [5]): 4480 nM

Compound: CS(=O)(=O)N1CCC(n2cnc3c(-c4cccnc4)nc(-c4ccc(Cl)cc4)cc3c2=O)CC1 [Example 94, 6-(4-chlorophenyl)-3-(1-(methylsulfonyl)piperidin-4-yl)-8-(pyridin-3-yl)pyrido[3,4-d]pyrimidin-4(3H)-one]
- IC50 (AhR [1]; [4]): < 10 nM
- EC50 (AhR [2]; [5]): > 30000 nM
- EC50 (AhR [2]; [9]): > 10000 nM

Compound: O=c1c2cc(-c3ccc(N4CCOCC4)cc3)nc(-c3cccnc3)c2ncn1CC(O)CO (stereo not shown) [Example 82, 3-(2,3-dihydroxypropyl)-6-(4-morpholinophenyl)-8-(pyridin-3-yl)pyrido[3,4-d]pyrimidin-4(3H)-one]
- IC50 (AhR [1]; [4]): < 10 nM
- EC50 (AhR [2]; [5]): > 30000 nM
- EC50 (AhR [2]; [9]): > 10000 nM

Compound: CS(=O)(=O)CCn1cnc2c(-c3cccnc3)nc(-c3ccc(C(F)(F)F)cc3)cc2c1=O [Example 76, 3-(2-(methylsulfonyl)ethyl)-8-(pyridin-3-yl)-6-(4-(trifluoromethyl)phenyl)pyrido[3,4-d]pyrimidin-4(3H)-one]
- IC50 (AhR [1]; [4]): < 10 nM
- EC50 (AhR [2]; [5]): > 30000 nM
- EC50 (AhR [2]; [9]): > 10000 nM

Compound: Cn1cc(-c2nc(-c3ccc(C(F)(F)F)cc3)cc3c(=O)n(C4CCCC(O)C4)cnc23)cn1 (stereo not shown) [Example 1, 3-(3-hydroxycyclohexyl)-8-(1-methyl-1H-pyrazol-4-yl)-6-(4-(trifluoromethyl)phenyl)pyrido[3,4-d]pyrimidin-4(3H)-one]
- IC50 (AhR [1]; [8]): < 10 nM
- EC50 (AhR [2]; [5]): > 30000 nM
- EC50 (AhR [2]; [9]): > 10000 nM

Reference: patent US20230147257A1 (DONG-A ST CO., LTD., priority 2020, published 2023)
